# “And” between values parts separate entries of the source, which are not always exact repeats. Equal entries are not always repeated. Where two headings read alike, the source gives them in different places.
# Legend:
# Test in all cases: biochemical
# Type in all cases: biochemical
# [1] = biological target: T1, 363 human kinases (including Aurora A/B/C) (Homo sapiens, UniProt Q13873); conditions: BMPR2, [ATP] 15 µM; for remaining activity at 0.1 µM: 100 nM; for remaining activity at 0.1 µM / remaining activity at 0.5 µM: read-out: % Enzyme Activity (relative to DMSO controls)
# T1 sequence (Q13873 27-1038): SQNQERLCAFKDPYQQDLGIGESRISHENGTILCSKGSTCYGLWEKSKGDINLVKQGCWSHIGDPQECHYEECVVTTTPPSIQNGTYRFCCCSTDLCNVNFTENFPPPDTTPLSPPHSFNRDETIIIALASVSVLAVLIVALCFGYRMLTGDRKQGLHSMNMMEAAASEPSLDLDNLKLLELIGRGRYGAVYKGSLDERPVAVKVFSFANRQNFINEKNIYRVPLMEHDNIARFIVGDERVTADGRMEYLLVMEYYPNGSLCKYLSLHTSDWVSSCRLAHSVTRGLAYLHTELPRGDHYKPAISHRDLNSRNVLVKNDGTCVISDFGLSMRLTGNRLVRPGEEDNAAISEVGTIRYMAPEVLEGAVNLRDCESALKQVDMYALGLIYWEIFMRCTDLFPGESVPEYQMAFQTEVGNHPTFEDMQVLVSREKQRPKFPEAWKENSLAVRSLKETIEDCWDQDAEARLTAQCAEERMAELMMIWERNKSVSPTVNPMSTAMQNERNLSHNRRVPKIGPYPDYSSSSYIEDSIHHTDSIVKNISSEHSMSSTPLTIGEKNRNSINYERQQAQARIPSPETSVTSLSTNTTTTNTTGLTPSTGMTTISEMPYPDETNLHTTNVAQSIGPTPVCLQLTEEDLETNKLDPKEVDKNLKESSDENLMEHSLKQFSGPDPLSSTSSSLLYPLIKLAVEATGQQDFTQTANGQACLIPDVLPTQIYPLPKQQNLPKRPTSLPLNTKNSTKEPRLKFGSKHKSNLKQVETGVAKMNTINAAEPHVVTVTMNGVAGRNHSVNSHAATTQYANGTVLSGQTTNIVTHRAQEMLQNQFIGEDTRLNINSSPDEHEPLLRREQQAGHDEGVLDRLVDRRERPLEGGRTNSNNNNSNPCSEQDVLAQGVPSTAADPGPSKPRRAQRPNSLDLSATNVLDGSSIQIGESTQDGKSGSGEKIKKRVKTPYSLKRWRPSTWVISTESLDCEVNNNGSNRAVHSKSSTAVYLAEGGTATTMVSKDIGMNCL
# Text: (§1) However, the Aurora A/B selectivity ratios derived from our in vitro and in vivo data can be compared to prioritize inhibitors.
# [2] = biological target: T2, 363 human kinases (including Aurora A/B/C) (Homo sapiens, UniProt Q8IYT8); conditions: ULK2; for remaining activity at 0.1 µM: 100 nM; for remaining activity at 0.1 µM / remaining activity at 0.5 µM: read-out: % Enzyme Activity (relative to DMSO controls)
# T2 sequence (Q8IYT8 1-1036): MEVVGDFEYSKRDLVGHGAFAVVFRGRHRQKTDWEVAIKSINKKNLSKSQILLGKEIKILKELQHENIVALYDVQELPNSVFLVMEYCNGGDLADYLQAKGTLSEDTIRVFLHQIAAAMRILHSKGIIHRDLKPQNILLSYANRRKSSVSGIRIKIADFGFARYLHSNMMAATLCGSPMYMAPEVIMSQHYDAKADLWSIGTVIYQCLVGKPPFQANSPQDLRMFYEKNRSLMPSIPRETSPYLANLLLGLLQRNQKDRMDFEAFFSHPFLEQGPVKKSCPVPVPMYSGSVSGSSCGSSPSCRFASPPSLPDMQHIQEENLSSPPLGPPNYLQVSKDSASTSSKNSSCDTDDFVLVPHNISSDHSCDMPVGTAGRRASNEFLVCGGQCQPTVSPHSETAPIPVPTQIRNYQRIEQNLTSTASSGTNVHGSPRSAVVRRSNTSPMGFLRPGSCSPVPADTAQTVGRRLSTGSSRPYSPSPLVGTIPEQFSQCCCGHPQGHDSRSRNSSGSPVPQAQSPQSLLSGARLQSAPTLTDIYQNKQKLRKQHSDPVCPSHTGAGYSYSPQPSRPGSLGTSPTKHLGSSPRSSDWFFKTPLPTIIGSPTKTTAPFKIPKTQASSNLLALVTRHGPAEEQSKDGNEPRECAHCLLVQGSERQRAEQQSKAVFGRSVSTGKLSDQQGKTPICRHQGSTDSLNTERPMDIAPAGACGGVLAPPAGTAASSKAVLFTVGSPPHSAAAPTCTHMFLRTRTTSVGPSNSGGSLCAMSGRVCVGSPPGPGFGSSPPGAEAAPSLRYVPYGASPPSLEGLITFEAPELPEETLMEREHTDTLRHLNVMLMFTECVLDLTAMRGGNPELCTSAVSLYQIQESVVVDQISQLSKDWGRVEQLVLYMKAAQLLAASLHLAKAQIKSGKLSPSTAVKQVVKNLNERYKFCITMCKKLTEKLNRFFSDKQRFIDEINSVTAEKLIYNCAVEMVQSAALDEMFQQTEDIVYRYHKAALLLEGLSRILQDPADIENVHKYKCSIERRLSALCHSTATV
# Text: as §1
# [3] = biological target: 363 human kinases (including Aurora A/B/C) (Homo sapiens, UniProt P35916); conditions: for remaining activity at 0.1 µM / remaining activity at 0.5 µM: read-out: % Enzyme Activity (relative to DMSO controls)
# Chain of 363 human kinases (including Aurora A/B/C) (Homo sapiens, UniProt P35916) (P35916 25-1363): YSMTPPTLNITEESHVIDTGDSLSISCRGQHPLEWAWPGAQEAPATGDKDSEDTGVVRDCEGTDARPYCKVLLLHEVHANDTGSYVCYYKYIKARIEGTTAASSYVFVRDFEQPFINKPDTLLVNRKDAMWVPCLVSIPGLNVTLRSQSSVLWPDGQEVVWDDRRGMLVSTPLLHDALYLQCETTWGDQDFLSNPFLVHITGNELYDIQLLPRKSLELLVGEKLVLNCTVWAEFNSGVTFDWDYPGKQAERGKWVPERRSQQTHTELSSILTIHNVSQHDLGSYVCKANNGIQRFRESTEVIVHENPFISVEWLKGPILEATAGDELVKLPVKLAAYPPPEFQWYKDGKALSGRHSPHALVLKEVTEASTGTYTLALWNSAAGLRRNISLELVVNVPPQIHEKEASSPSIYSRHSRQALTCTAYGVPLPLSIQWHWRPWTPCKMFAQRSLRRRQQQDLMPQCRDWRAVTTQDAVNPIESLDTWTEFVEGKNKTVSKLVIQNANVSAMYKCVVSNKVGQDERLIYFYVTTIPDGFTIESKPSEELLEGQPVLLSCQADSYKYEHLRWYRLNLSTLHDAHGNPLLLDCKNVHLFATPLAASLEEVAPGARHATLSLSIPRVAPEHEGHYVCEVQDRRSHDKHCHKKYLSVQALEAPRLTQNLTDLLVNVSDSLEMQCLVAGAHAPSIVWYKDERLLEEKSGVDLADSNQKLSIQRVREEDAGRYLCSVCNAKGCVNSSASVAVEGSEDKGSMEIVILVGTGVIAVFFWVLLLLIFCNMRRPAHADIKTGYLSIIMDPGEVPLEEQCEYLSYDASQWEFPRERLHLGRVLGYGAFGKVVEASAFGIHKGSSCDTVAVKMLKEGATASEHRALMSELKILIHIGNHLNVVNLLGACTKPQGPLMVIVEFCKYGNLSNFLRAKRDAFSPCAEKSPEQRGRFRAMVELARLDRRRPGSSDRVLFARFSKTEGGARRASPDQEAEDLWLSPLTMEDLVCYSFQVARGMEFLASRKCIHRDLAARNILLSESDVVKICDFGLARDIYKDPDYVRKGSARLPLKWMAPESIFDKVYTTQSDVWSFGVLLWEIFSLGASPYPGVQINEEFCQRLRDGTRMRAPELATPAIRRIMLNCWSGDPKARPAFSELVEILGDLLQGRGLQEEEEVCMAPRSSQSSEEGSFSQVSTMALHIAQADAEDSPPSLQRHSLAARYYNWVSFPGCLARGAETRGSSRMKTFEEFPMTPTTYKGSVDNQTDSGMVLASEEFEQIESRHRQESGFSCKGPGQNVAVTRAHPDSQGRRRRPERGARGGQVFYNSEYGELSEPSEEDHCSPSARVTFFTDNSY
# Text: as §1
# [4] = biological target: T3, 363 human kinases (including Aurora A/B/C) (Homo sapiens, UniProt O43781); conditions: DYRK3, [ATP] 5 µM; for remaining activity at 0.1 µM: 100 nM; for remaining activity at 0.1 µM / remaining activity at 0.5 µM: read-out: % Enzyme Activity (relative to DMSO controls)
# T3 sequence (O43781 1-588): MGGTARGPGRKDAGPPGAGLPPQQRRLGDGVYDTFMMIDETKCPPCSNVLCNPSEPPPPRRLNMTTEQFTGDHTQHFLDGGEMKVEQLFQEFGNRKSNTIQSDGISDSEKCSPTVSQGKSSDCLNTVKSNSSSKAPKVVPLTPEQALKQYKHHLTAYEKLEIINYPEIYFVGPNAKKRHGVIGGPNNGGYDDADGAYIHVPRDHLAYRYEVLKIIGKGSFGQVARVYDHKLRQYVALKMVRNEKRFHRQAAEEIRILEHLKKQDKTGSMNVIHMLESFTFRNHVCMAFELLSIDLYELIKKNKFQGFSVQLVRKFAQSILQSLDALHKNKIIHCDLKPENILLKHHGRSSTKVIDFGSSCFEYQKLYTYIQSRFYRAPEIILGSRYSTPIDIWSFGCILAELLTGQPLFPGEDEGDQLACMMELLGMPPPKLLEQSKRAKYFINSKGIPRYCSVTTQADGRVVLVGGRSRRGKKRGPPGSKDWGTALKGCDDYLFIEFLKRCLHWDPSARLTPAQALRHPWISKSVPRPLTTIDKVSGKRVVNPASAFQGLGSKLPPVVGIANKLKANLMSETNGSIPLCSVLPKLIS
# Text: as §1
# [5] = biological target: 363 human kinases (including Aurora A/B/C) (Homo sapiens, UniProt O75460); conditions: ERN1/IRE1, [ATP] 30 µM; for remaining activity at 0.1 µM: 100 nM; for remaining activity at 0.1 µM / remaining activity at 0.5 µM: read-out: % Enzyme Activity (relative to DMSO controls)
# Chain of 363 human kinases (including Aurora A/B/C) (Homo sapiens, UniProt O75460) (O75460 19-977): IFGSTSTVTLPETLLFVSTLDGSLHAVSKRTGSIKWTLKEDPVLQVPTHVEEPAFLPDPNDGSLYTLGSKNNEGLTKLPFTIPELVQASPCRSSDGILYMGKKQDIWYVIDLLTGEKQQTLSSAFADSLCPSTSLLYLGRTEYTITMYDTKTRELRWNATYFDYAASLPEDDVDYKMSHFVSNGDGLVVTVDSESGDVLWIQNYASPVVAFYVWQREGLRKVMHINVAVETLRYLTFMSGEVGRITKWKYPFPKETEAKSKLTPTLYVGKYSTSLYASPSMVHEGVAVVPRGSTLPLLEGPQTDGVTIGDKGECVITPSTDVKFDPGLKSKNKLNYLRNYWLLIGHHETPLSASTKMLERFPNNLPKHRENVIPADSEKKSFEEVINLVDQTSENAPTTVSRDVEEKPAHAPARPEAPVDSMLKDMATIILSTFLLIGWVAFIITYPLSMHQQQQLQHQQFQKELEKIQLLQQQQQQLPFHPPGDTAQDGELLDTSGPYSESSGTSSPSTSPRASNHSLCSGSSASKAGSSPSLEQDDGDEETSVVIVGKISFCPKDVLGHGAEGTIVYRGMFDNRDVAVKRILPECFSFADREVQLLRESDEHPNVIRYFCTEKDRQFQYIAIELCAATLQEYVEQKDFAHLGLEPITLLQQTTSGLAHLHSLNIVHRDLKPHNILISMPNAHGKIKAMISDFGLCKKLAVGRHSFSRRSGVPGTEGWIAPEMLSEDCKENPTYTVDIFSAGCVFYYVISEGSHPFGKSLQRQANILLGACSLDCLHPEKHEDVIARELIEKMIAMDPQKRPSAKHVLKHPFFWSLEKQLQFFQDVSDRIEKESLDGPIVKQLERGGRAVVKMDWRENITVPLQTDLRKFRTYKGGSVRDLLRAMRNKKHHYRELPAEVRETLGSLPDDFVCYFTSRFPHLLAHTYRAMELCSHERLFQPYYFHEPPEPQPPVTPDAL
# Text: as §1
# [6] = biological target: 363 human kinases (including Aurora A/B/C) (Homo sapiens, UniProt Q04759); conditions: PKCtheta; for remaining activity at 0.1 µM: 100 nM; for remaining activity at 0.1 µM / remaining activity at 0.5 µM: read-out: % Enzyme Activity (relative to DMSO controls)
# Chain of 363 human kinases (including Aurora A/B/C) (Homo sapiens, UniProt Q04759) (Q04759 whole entry): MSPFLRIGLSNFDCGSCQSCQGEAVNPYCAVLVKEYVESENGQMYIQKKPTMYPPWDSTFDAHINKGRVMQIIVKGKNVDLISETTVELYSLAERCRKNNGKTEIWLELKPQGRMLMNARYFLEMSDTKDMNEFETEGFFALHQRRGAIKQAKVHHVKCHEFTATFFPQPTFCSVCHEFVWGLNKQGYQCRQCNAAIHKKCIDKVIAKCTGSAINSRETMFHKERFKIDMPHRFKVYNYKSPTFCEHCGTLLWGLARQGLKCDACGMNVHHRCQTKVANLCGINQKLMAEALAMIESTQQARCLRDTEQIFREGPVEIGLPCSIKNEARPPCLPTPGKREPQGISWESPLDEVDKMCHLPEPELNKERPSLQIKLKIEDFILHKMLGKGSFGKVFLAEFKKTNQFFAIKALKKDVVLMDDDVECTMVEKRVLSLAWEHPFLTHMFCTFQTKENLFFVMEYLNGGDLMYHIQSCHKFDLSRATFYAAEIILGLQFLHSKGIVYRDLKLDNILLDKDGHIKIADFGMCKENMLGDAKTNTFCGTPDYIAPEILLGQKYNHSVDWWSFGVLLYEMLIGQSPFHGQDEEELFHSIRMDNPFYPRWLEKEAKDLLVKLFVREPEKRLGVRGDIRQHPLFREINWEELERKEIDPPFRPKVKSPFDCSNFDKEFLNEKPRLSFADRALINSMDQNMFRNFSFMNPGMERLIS
# Text: as §1
# [7] = FLT4/VEGFR3, [ATP] 5 µM, 500 nM
Compound,remaining activity at 0.1 µM [1],remaining activity at 0.1 µM [2],remaining activity at 0.1 µM [3],remaining activity at 0.1 µM [4],remaining activity at 0.1 µM [5],remaining activity at 0.1 µM [6],% Enzyme Activity (relative to DMSO controls) ([1]; 500 nM),remaining activity at 0.5 µM ([1]; 500 nM),% Enzyme Activity (relative to DMSO controls) ([2]; 500 nM),remaining activity at 0.5 µM ([2]; 500 nM),"% Enzyme Activity (relative to DMSO controls) [3, 7]","remaining activity at 0.5 µM [3, 7]",% Enzyme Activity (relative to DMSO controls) ([4]; 500 nM),remaining activity at 0.5 µM ([4]; 500 nM),% Enzyme Activity (relative to DMSO controls) ([5]; 500 nM),remaining activity at 0.5 µM ([5]; 500 nM),% Enzyme Activity (relative to DMSO controls) ([6]; 500 nM),remaining activity at 0.5 µM ([6]; 500 nM),"remaining activity at 0.1 µM ([3]; FLT4/VEGFR3, [ATP] 5 µM, 100 nM)"
CCn1cc(-c2ccnc3[nH]c(-c4cccc(CN(C)C)c4)cc23)c(-c2ccc(NC(=O)N(C)C)cc2)n1 [GSK1070916],147%,141%,60.2% and 59.9%,96%,95.9%,92.7%,–,–,–,–,–,–,–,–,–,–,–,–,–
O=C(c1cccc(Cl)c1F)N1CCN(Cc2cccc(Nc3nccs3)n2)CC1 [MK-8745],–,–,–,–,–,–,98.44%,106%,140.35%,144%,87.71%,88.4%,92.33%,92.3%,88.65%,89.3%,152.58%,157%,–
O=C(O)[C@]1(Cc2cccc(Nc3nccs3)n2)CC[C@@H](Oc2cccc(Cl)c2F)CC1 [MK-5108],46.4%,113%,–,87.2%,106%,91.8%,–,37%,–,134%,–,6.3%,–,92.2%,–,88.8%,–,104%,26.2%

# Reference: paper PMC4685510, “A Cell Biologist’s Field Guide to Aurora Kinase Inhibitors” (Frontiers in Oncology, 2015)
